Reference: patent US9212209B2, “Screening methods for spinal muscular atrophy” (Indiana University Research and Technology Corporation, priority 2012, dated 2015)
Read-outs that look alike come from different tables or passages of the source.

What was measured:
[1] = tested on: SMN-luciferase transcripts; test: qRT-PCR of SMN-luciferase transcripts in SMN2-luc cells; assay type: cell-based, human; conditions: 24 hours, relative to DMSO, normalized to GAPDH, aclarubicin at 300 nM, words
Protocol: Compounds were tested at three concentrations that display maximal activity in the luciferase assay. Cells were treated as described above for the luciferase assay. Cells were harvested by trypsinization, neutralized with trypsin inhibitor, and washed. RNA was isolated from the cells using TRIZOL Reagent (Invitrogen 15596-026). cDNA was generated using the IMPROM-II Reverse Transcription System (Promega A3801).
The forward primer pair recognizes the exon 5-6 junction, which includes a restriction site that was engineered into the reporter and will exclude amplification of endogenous SMN mRNA. The reverse primers recognize either exon 7 or luciferase for detection of full-length or total SMN-luciferase transcripts respectively. For a reference control, cDNA from the housekeeping gene glyceraldehyde-3-phosphate dehydrogenase (GAPDH) was amplified. The primers used include SMN exon5-forward ([…]) (SEQ ID NO: 3), luciferase-reverse ([…]) (SEQ ID NO: 4), exon7-reverse ([…]) (SEQ ID NO: 5), GAPDH-reverse (G3A) ([…]) (SEQ ID NO: 6) and GAPDH-forward (G3S) ([…]) (SEQ ID NO: 7). qPCR was performed as described in the protocol for iQ SYBRGREEN SUPERMIX (Biorad 170-8882) using an EPPENDORF Mastercycler ep realplex^4 Thermo Cycler. Reactions were incubated for a 10 minute, 94° C. hot start followed by 45 cycles of the following: 94° C. for 45 second, 60° C. for 15 seconds, 72° C. for 45 seconds. Melting curves for each reaction were obtained. Each sample was assayed in triplicate and every plate contained a 5-point cDNA dilution course to calculate amplification efficiency for each primer pair. The Pfaffl method was used to determine the change in transcript levels relative to the DMSO and normalized to GAPDH (Pfaffl, M. W., “A new mathematical model for relative quantification in real-time RT-PCR,” Nucleic Acids Res 2001, 29(9), 3e45).
Based on the new reporter design, it was predicted that this screen could detect increased SMN-luciferase protein levels caused by compounds that stimulate SMN2 transcription, exon 7 inclusion, or by increasing the half-life of the SMN mRNA or protein. Quantitative reverse transcriptase PCR (qRT-PCR) was used to analyze SMN-luciferase mRNAs. All assays used RNA from control and compound-treated SMN2-luc cells and primers pairs were chosen to amplify only the SMN-luciferase derived transcripts (FIG. 4A). A pair of primers were used that specifically detects both full-length (exon 7 included) and Δ7 (exon 7 excluded) SMN-luciferase transcripts (primers 1 and 3). To measure changes in exon 7 splicing efficiency, a primer pair was used that detects only the full-length (exon 7 included) SMN-luciferase transcript (primers 1 and 2).
For each sample, the percent increase in the amount of total SMN-luciferase transcripts (gray bar) and exon 7 included full-length SMN-luciferase transcripts (white bar) was plotted (FIG. 4). Compounds that increase transcription should show increased total SMN-luciferase transcripts (gray bar) with a proportional increase for exon 7 included transcripts (white bar), assuming that proper splicing of exon 7 is not rate limiting. Compounds that stimulate exon 7 inclusion should increase the amount of exon 7 included full-length transcript (white bar) detected with little to no change in the expression of total SMN-luciferase transcripts (gray bar). In these experiments, cells were treated with compound, harvested, and each cell pellet was divided for isolation of RNA and to assay luciferase activity. Each qRT-PCR sample was normalized to the housekeeping gene glyceraldehyde-3-phosphate dehydrogenase (GAPDH). The Pfaffl method was used to calculate the change in the amount of total SMN mRNA and determine whether compound treatments increased SMN transcripts.

[2] = tested on: SMN2-luciferase reporter; test: SMN2-luciferase reporter assay (clonal HEK-293 SMN2-luc cells); assay type: cell-based, human; set-up: % activation: concentration or dose not given beside the values; conditions: for EC50 / Emax: Homo sapiens; for Active / % activation: reporter assay; for Emax: read-out: Max % Activity; for % activation: Table 5
Protocol: The reporter cell lines were plated at 50,000 cells per well in 96-well plates and incubated overnight. Compounds were added to each well and incubated at 37° C. overnight. The final DMSO concentration was 0.1%. Luciferase activity was assayed using either STEADYGLO (PROMEGA E2510) or DUALGLO (PROMEGA E2920) luciferase using the WALLAC ENVISION multilabel reader. For detailed assay conditions see Table 2A. All data points were transformed from CPS to percent increase over basal expression in the treated control wells (DMSO or H2O as appropriate).
Plates were sealed with porous paper tape and incubated for 24 hours. […] For comparison, data points were transformed from CPS to percent activation over basal expression in the DMSO treated control wells.
For comparison, all data points are expressed as percent increase over basal luciferase expression in the control cells.

[3] = HEK293, reporter assay, Table 6, read-out: Ec50
[4] = HEK293, reporter assay, Table 6

SMILES	Active ([2]; Table 6)	also measured
CC[C@@]1(O)C[C@H](O[C@H]2C[C@H](N(C)C)[C@H](O[C@H]3C[C@H](O)[C@H](O[C@H]4CCC(=O)[C@H](C)O4)[C@H](C)O3)[C@H](C)O2)c2c(cc3c(c2O)C(=O)c2c(O)cccc2C3=O)[C@H]1C(=O)OC [Aclarubicin, aclarubicin, reference compound]		exon 7 included full-length SMN-luciferase transcripts [1]: lesser increase; total SMN-luciferase transcripts [1]: potent increase; EC50 ([2]; HEK293): 298 nM; Max. fold increase ([2]; cell-based reporter response to known SMN2 modulating compounds): 10 fold
CC(/C=C/C(=O)NO)=C\[C@@H](C)C(=O)c1ccc(N(C)C)cc1 [TSA]		exon 7 included full-length SMN-luciferase transcripts [1]: increased; total SMN-luciferase transcripts [1]: increased
COC1=C2C(=CC(OC)C1OC)NC(=O)CC2c1cc(NC(=O)c2ccccc2)ccc1F (stereo not shown) [LDN-212359]	No	
COc1ccc(NC(=O)C2=NOC(C)C2)cc1 (stereo not shown) [CAL-4]	Yes	EC50 [2, 3]: 8000 nM; Emax [2, 4]: 211%
CC(C)c1cc(C(=O)Nc2cccc3ccccc23)no1 [LDN-211827]	No/Weak	
CC(C)c1cc(C(=O)Nc2ccccc2C(F)(F)F)no1 [CAL-31]	Yes	EC50 [2, 3]: 16000 nM; Emax [2, 4]: 154%
COc1cc2c(c(OC)c1OC)C(c1ccc(F)c(F)c1)CC(=O)N2 (stereo not shown) [CAL-57]	No	
COc1ccc(NC(=O)c2cc(C(C)C)on2)c(OC)c1 [CAL-27]	Yes	EC50 [2, 3]: 1000 nM; Emax [2, 4]: 125%
N#Cc1ccsc1NC(=O)CCc1ccccc1 [Compound 110425]		% activation [2]: 93%
Cc1c(C(=O)NCCC(C)C)oc2ccc3c(c12)C(O)CC(C)(C)O3 (stereo not shown) [Compound 79199]		% activation [2]: 102%
CC(C)(C)c1cc(NC(=O)c2cc3ccccc3[nH]2)no1 [LDN-211911]	Yes	EC50 [2, 3]: 400 nM; Emax [2, 4]: 175%
CC(C)c1nc(C(=O)Nc2ccc(F)c(Cl)c2)co1 [LDN-212015]	Yes	EC50 [2, 3]: 1700 nM; Emax [2, 4]: 100%
COC1=CC2NC(=O)CC(c3cc([N+](=O)[O-])ccc3F)C2C(OC)=C1OC (stereo not shown) [LDN-212354]	No/Weak	
CC(C)c1nc(C(=O)Nc2ccc(F)c(Cl)c2)cs1 [LDN-211986]	Yes	EC50 [2, 3]: 1500 nM; Emax [2, 4]: 100%
CC(C)c1cc(C(=O)Nc2ccc(F)c(Cl)c2)nn1C [LDN-211856]	No	
CC(C)(C)C(=O)Nc1nc(COc2ccccc2)cs1 [Compound 109981]		% activation [2]: 98%
O=C(Nc1nc(-c2ccccc2)cs1)c1ccc(F)c(Cl)c1 [LDN-211983]	No	
CC(C)c1cc(C(=O)Nc2cccc(Cl)c2)no1 [CAL-25]	Yes	EC50 [2, 3]: 350 nM; Emax [2, 4]: 237%
COc1cc2c(c(OC)c1OC)C(c1cccnc1)CC(=O)N2 (stereo not shown) [LDN-76158]	No	
C=C1CC(c2cccc3ccccc23)c2c(cc(OC)c(OC)c2OC)N1 (stereo not shown) [LDN-212350]	No/Weak	
O=C(Nc1ccc(F)c(Cl)c1)c1cc(Cc2ccccc2)on1 [LDN-211855]	Yes	EC50 [2, 3]: 1500 nM; Emax [2, 4]: 125%
Brc1ccc(OCc2cn3cccnc3n2)c(Br)c1 [Compound 67615]		% activation [2]: 105%
O=C(Nc1cc(C2(O)CCC2)ccn1)c1ccc(F)c(Cl)c1 [LDN-212256]	Yes	EC50 [2, 3]: 400 nM; Emax [2, 4]: 114%
O=C1CC(c2cc(Br)ccc2F)c2c(ccc3ccccc23)N1 (stereo not shown) [LDN-212352]	No	
COc1cc2c(c(OC)c1)C(c1cc3c(cc1Br)OCO3)CC(=O)N2 (stereo not shown) [CAL-52]	No	
COc1cc2c(c(OC)c1OC)C(c1ccccc1F)CC(=O)N2 (stereo not shown) [CAL-22]	No	
COc1cc2c(c(OC)c1)C(c1cc(Br)ccc1F)CC(=O)N2 (stereo not shown) [LDN-212264]	No	

SMILES	Active ([2]; Table 6)	also measured
CCN1C(=O)c2cccc3c(S(=O)(=O)NC4CCCC4)ccc1c23 [Compound 109657]		% activation [2]: 152%
CCOc1ccc(Br)cc1C1CC(=O)Nc2cc(OC)c(OC)c(OC)c21 (stereo not shown) [CAL-50]	No	
COc1cc2c(c(OC)c1OC)C(c1cc(Cl)ccc1F)C(C)C(=O)N2 (stereo not shown) [LDN-213773]	No	
O=C(NCCn1ccc2ccccc21)c1ccc2c(c1)OCO2 [Compound 107992]		% activation [2]: 121%
CC(C)(C)c1cc(NC(=O)c2ccc3ccccc3n2)no1 [LDN-211908]	No/Weak	
COc1cc2c(c(OC)c1OC)C(c1cc(Cl)ccc1F)N(CCN(C)C)C(=O)N2 (stereo not shown) [LDN-214097]	No	
CCN(CC)CCCNC(=O)c1cc(C2CC2)on1 [CAL-42]	No	
CC(C)c1cc(C(=O)Nc2ccc3ccccc3c2)no1 [LDN-211826]	Yes	EC50 [2, 3]: 1100 nM; Emax [2, 4]: 150%
O=C(Nc1ccc(F)c(Cl)c1)c1noc(C2CC2)c1[N+](=O)[O-] [CAL-38]	No	
COc1cc2c(c(OC)c1OCCO)C(c1cc(Cl)ccc1F)CC(=O)N2 (stereo not shown) [LDN-213771]	No	
CC(C)C1CC(C(=O)Nc2ccc(F)c(Cl)c2)=NO1 (stereo not shown) [LDN-211862]	Nonspecific	
C=C/C(Cl)=C(\CCl)NC(=O)c1cc(C(C)C)on1 [CAL-30]	No	
CC(=O)N1c2ccccc2C(Nc2ccccc2)CC1C (stereo not shown) [Compound 66854]		% activation [2]: 210%
COc1cc2c(c(OC)c1OC)C(c1ccc3ccccc3c1)CC(=O)N2 (stereo not shown) [LDN-212357]	No	
Cn1c(C(=O)Nc2cc(C(C)(C)C)on2)cc2ccccc21 [LDN-211910]	Yes	EC50 [2, 3]: 700 nM; Emax [2, 4]: 100%
COc1cc2c(c(OC)c1OC)C(c1cc(Cl)ccc1F)OC(=O)N2 (stereo not shown) [LDN-213768]	Yes	EC50 [2, 3]: 5900 nM; Emax [2, 4]: 150%
COc1cc2[nH]c(=O)cc(-c3cc(Br)ccc3F)c2c(OC)c1OC [LDN-212265]	No	
COc1cc2c(c(OC)c1OC)C(c1ccc(Cl)cc1Cl)CC(=O)N2 (stereo not shown) [LDN-76074]	No/Weak	
O=C(Nc1ccc(F)c(Cl)c1)c1cc(C2CCCCC2)on1 [LDN-211829]	No/Weak	
COc1cc2c(c(OC)c1OCCN1CCOCC1)C(c1cc(Cl)ccc1F)CC(=O)N2 (stereo not shown) [LDN-213770]	No	
CC(C)(O)c1sc(NC(=O)C2CCC(F)C(Cl)C2)nc1C(F)(F)F (stereo not shown) [LDN-213766]	No	
CNC(=O)c1ccc2nc(N3CCCCC3)sc2c1 [Compound 79213]		% activation [2]: 90%
COc1cc2c(c(OC)c1OC)C(c1cc(Cl)ccc1F)C(C)C(=O)N2 (stereo not shown) [LDN-214085]	Yes	EC50 [2, 3]: 6000 nM; Emax [2, 4]: 180%
CC1CC(C(=O)NC2CCCc3ccccc32)=NO1 (stereo not shown) [CAL-1]	No	
CC(C)c1cc(C(=O)NCc2ccc(F)c(Cl)c2)no1 [LDN-211834]	No	
CC(C)(C)c1nnc(NC(=O)c2ccc(F)c(Cl)c2)s1 [LDN-211981]	Yes	EC50 [2, 3]: 5900 nM; Emax [2, 4]: 100%
